What was measured:
Details in all cases: 72 h
Caco-2 [1] = assay: cell viability relative to DMSO; higher = less toxic
Calu-3 [2] = assay: as above
HepG2 [3] = assay: as above
U2OS [4] = assay: as above
Vero E6 [5] = assay: as above
Caco-2 [6] = assay: relative viability EC50 (midpoint between 100% and the lowest measured viability); higher = less toxic
Calu-3 [7] = assay: as above
HepG2 [8] = assay: as above
U2OS [9] = assay: as above
Vero E6 [10] = assay: as above
Caco-2 [11] = assay: drug sensitivity score (DSS) for viability; higher = more toxic; extreme values may be limits of the assay
Calu-3 [12] = assay: as above
HepG2 [13] = assay: as above
U2OS [14] = assay: as above
Vero E6 [15] = assay: as above

| SMILES | cell viability (Caco-2 [1]; 1 nM) [%] | cell viability (Caco-2 [1]; 10 nM) [%] | cell viability (Caco-2 [1]; 100 nM) [%] | cell viability (Caco-2 [1]; 1000 nM) [%] | cell viability (Caco-2 [1]; 10000 nM) [%] | cell viability (Calu-3 [2]; 1 nM) [%] | cell viability (Calu-3 [2]; 10 nM) [%] | cell viability (Calu-3 [2]; 100 nM) [%] | cell viability (Calu-3 [2]; 1000 nM) [%] | cell viability (Calu-3 [2]; 10000 nM) [%] | cell viability (HepG2 [3]; 1 nM) [%] | cell viability (HepG2 [3]; 10 nM) [%] | cell viability (HepG2 [3]; 100 nM) [%] | cell viability (HepG2 [3]; 1000 nM) [%] | cell viability (HepG2 [3]; 10000 nM) [%] | cell viability (U2OS [4]; 1 nM) [%] | cell viability (U2OS [4]; 10 nM) [%] | cell viability (U2OS [4]; 100 nM) [%] | cell viability (U2OS [4]; 1000 nM) [%] | cell viability (U2OS [4]; 10000 nM) [%] | cell viability (Vero E6 [5]; 1 nM) [%] | cell viability (Vero E6 [5]; 10 nM) [%] | cell viability (Vero E6 [5]; 100 nM) [%] | cell viability (Vero E6 [5]; 1000 nM) [%] | cell viability (Vero E6 [5]; 10000 nM) [%] | relative viability EC50 (Caco-2 [6]) [µM] | relative viability EC50 (Calu-3 [7]) [µM] | relative viability EC50 (HepG2 [8]) [µM] | relative viability EC50 (U2OS [9]) [µM] | relative viability EC50 (Vero E6 [10]) [µM] | drug sensitivity score (Caco-2 [11]) | drug sensitivity score (Calu-3 [12]) | drug sensitivity score (HepG2 [13]) | drug sensitivity score (U2OS [14]) | drug sensitivity score (Vero E6 [15]) |
| --- | --- | --- | --- | --- | --- | --- | --- | --- | --- | --- | --- | --- | --- | --- | --- | --- | --- | --- | --- | --- | --- | --- | --- | --- | --- | --- | --- | --- | --- | --- | --- | --- | --- | --- | --- |
| Nc1ccn([C@@H]2O[C@@](CO)(CCl)[C@@H](O)[C@H]2F)c(=O)n1 [ALS-8112] | 95.2 | 96.4 | 96.1 | 93.9 | 98.9 | 104 | 102 | 93.8 | 100 | 90.9 | 90.2 | 94.3 | 104 | 96.1 | 82.8 | 102 | 99.2 | 102 | 96.8 | 97.4 | 100 | 97.7 | 97 | 98.8 | 94.8 | > 10 | > 10 | > 10 | > 10 | > 10 | 0 | 0 | 0.8 | 0 | 0 |
| Cc1ccc2c(c1)[C@H]1CN(C)CC[C@H]1N2 [stobadine] | 96.5 | 91.9 | 92.2 | 96 | 95.8 | 97.2 | 116 | 93 | 94.5 | 102 | 107 | 110 | 97.2 | 97.4 | 95.8 | 100 | 98.7 | 101 | 99.6 | 101 | 101 | 102 | 99.7 | 103 | 94.1 | > 10 | > 10 | > 10 | > 10 | > 10 | 0 | 0 | 0 | 0 | 0 |
| O=C(O)CSc1nnc(Br)n1-c1ccc(C2CC2)c2ccccc12 [lesinurad] | 98.4 | 90.9 | 91.4 | 94 | 99.7 | 99 | 101 | 106 | 95.5 | 102 | 98.8 | 102 | 99.4 | 84.8 | 99.7 | 99.6 | 103 | 95.2 | 95.9 | 96.3 | 99.4 | 100 | 99.9 | 102 | 99.5 | > 10 | > 10 | > 10 | > 10 | > 10 | 0 | 0 | 0 | 0 | 0 |
| O=C(CN1CCNCC1)NC1CCCCC1 [esaprazole] | 105 | 92.2 | 105 | 98.5 | 98.6 | 98.3 | 98 | 101 | 104 | 97.1 | 104 | 99.5 | 100 | 102 | 90.1 | 99 | 100 | 102 | 100 | 108 | 103 | 107 | 99.1 | 107 | 98.5 | > 10 | > 10 | > 10 | > 10 | > 10 | 0 | 0 | 0 | 0 | 0 |
| CCCn1c(=O)c(C)cn2nc(N)nc12 | 91.7 | 91.5 | 102 | 99.5 | 112 | 105 | 102 | 102 | 111 | 99 | 96.9 | 95 | 93.8 | 98.3 | 107 | 100 | 97.3 | 104 | 98.9 | 101 | 90.1 | 103 | 96 | 97.1 | 97.7 | > 10 | > 10 | > 10 | > 10 | > 10 | 0 | 0 | 0 | 0 | 0 |
| CCN(CC)CCOc1ccc(Nc2ncc3cc(-c4c(Cl)cccc4Cl)c(=O)n(C)c3n2)cc1 | 102 | 102 | 80.7 | 41.7 | 5.4 | 98.8 | 99.5 | 80.3 | 49 | 2.3 | 111 | 97.9 | 82.2 | 11.3 | 0.1 | 99.1 | 104 | 90.8 | 10.4 | -0.1 | 95 | 95.3 | 88.9 | 26.6 | -0.1 | 0.532 | 0.712 | 0.266 | 0.329 | 0.465 | 13.5 | 12.5 | 18.4 | 17.5 | 15.3 |
| COc1cc2nccc(Oc3ccc(NC(=O)Nc4ccc(F)cc4F)c(F)c3)c2cc1OC [KI-8751] | 95.8 | 91.8 | 102 | 92.4 | 99.6 | 94.1 | 97.6 | 86.8 | 95.7 | 93.1 | 97.5 | 116 | 106 | 101 | 95.5 | 98.8 | 97.6 | 99.2 | 99.2 | 102 | 101 | 107 | 98.9 | 107 | 107 | > 10 | > 10 | > 10 | > 10 | > 10 | 0 | 0 | 0 | 0 | 0 |
